US5519155A, “Platinum complexes” (Johnson Matthey Public Limited Company, priority 1994, dated 1996)
pIC50: −log10 of the molar value.

What was measured:
HX-62 = test: In vitro cytotoxicity (SRB assay), human ovarian carcinoma line HX-62; type: cell-based; settings: HX-62 cells, exposure 48 to 96 hours
Protocol: (§1) Monolayer cells were trypsinized and seeded in 96-well microtiter plates at a density of 1×10^4 cells/well in 200 μl of growth medium. Cells were incubated overnight and test compounds were added to triplicate wells at various concentrations for a total of 48 to 96 hours. For toxicity analysis after drug exposure, the cells were fixed with trichloroacetic acid and stained for cellular protein content by incubation for 30 minutes with 0.4% (wt/vol) sulphorhodamine B (SRB) dissolved in 1% acetic acid. The unbound dye was removed by 1% acetic acid washes, and the bound dye was extracted with 10 mM Tris buffer. The amount of dye in solution was quantified by absorbance at 564 nm.

SKOV-3 = test: In vitro cytotoxicity (SRB assay), human ovarian carcinoma line SKOV-3; type: cell-based; settings: SKOV-3 cells, exposure 48 to 96 hours
Protocol: as §1

41M = test: In vitro cytotoxicity (SRB assay), human ovarian carcinoma line 41M; type: cell-based; settings: 41M cells, exposure 48 to 96 hours
Protocol: as §1

41M^R = test: In vitro cytotoxicity (SRB assay), human ovarian carcinoma line 41M^R; type: cell-based; settings: 41M^R cells, exposure 48 to 96 hours
Protocol: as §1

CH1 = test: In vitro cytotoxicity (SRB assay), human ovarian carcinoma line CH1; type: cell-based; settings: CH1 cells, exposure 48 to 96 hours
Protocol: as §1

Adj/PC6 tumours = test: In vivo test in mice having Adj/PC6 tumours (LD50, ED90, TI); settings: for ED90 / LD50 / TI (ratio of LD50 to ED90): mice, Adj/PC6 tumours
Protocol: The compounds of the invention were then tested in vivo in mice having Adj/PC6 tumours. The Adj/PC6 testing was carried out as described by P M Goddard et al presented in Sixth NCI-EORTC Symposium on New Drugs in Cancer Therapy 1989, which is a development of the basic method described by T A Connors et al, Chem Biol Interact 5,415 (1972). The animals were sacrificed when moribund. The compounds were administered parenterally (ip) or orally (po), or in the case of the Example 2 compound, iv at doses of 2.5, 5, 10 and 20 mg/kg (4 animals per dose group).
In the testing, LD50 and ED90 values in mg/kg body weight were determined in the conventional manner. The therapeutic index (TI) was calculated as the ratio of LD50 to ED90, and the results are shown below.

CH^R = test: In vitro cytotoxicity (SRB assay), human ovarian carcinoma line CH^R; type: cell-based; settings: CH^R cells, exposure 48 to 96 hours
Protocol: as §1

A2780 = test: In vitro cytotoxicity (SRB assay), human ovarian carcinoma line A2780; type: cell-based; settings: A2780 cells, exposure 48 to 96 hours
Protocol: as §1

A2780^R = test: In vitro cytotoxicity (SRB assay), human ovarian carcinoma line A2780^R; type: cell-based; settings: A2780^R cells, exposure 48 to 96 hours
Protocol: as §1

[1] = i.v., doses 2.5, 5, 10 and 20 mg/kg

| SMILES | pIC50 (HX-62) | pIC50 (SKOV-3) | pIC50 (41M) | pIC50 (41M^R) | pIC50 (CH1) | ED90 (Adj/PC6 tumours; i.p.) [mg/kg] | LD50 (Adj/PC6 tumours; i.p.) [mg/kg] | TI (ratio of LD50 to ED90) (Adj/PC6 tumours; i.p.) | pIC50 (CH^R) | pIC50 (A2780) | pIC50 (A2780^R) | ED90 (Adj/PC6 tumours; [1]) [mg/kg] | LD50 (Adj/PC6 tumours; [1]) [mg/kg] | TI (ratio of LD50 to ED90) (Adj/PC6 tumours; [1]) | therapeutic index, oral route compared to parenteral administration (Adj/PC6 tumours; oral vs parenteral, in words) | ED90 (Adj/PC6 tumours; p.o.) [mg/kg] | LD50 (Adj/PC6 tumours; p.o.) [mg/kg] | TI (ratio of LD50 to ED90) (Adj/PC6 tumours; p.o.) |
| --- | --- | --- | --- | --- | --- | --- | --- | --- | --- | --- | --- | --- | --- | --- | --- | --- | --- | --- |
| CCCC(=O)[O][Pt]([Cl])([O]C)[O]C(=O)CCC.N.NC1CCCCC1 [Example 1, c,t,c-[PtCl(OMe)(O2 CC3 H7)2 NH3 (c-C6 H11 NH2)]] | 6.66 | 7.52 | 8.00 | 7.89 | 8.70 | 2.6 | 17.5 | 6.7 | – | – | – | – | – | – | – | – | – | – |
| CC(=O)[O][Pt]([OH])([OH])[O]C(C)=O.N.NC1CCCCC1 [Example 2, c,t,c-[Pt(OH)2 (OAc)2 NH3 (c-C6 H11 NH2)]] | 4.43 | 4.68 | 5.19 | 5.37 | 6.13 | 4.2 | 17.5 | 4.2 | 5.87 | 5.38 | 5.43 | < 2.5 | 14 | > 5.6 | greater therapeutic index | 42 | 670 | 16 |
| CC(C)N.CC(C)N.CCCCCC(=O)[O][Pt]([OH])([Cl])[O]C(=O)CCCCC [Example 3, c,t,c-[PtCl(OH)(O2 CC5 H11)2 (i-C3 H7 NH2)2]] | 7.30 | 8.34 | > 8.60 | > 8.60 | > 8.60 | – | – | – | > 8.60 | > 8.60 | 8.54 | – | – | – | – | – | – | – |
| CC(=O)[O][Pt]([OH])([Cl])[O]C(C)=O.CC(C)N.CC(C)N [Example 4, c,t,c-[PtCl(OH)(OAc)2 (i-C3 H7 NH2)2]] | 5.68 | 5.80 | 6.05 | 6.23 | 7.07 | – | – | – | 6.68 | 6.19 | 5.72 | – | – | – | – | – | – | – |
| CC(=O)[O][Pt]([OH])([Cl])[O]C(C)=O.N.NC1CCCCC1 [Example 6, c,t,c-[PtCl(OH)(OAc)2 NH3 (c-C6 H11 NH2)]] | 5.51 | 5.94 | 6.62 | 6.36 | 7.66 | – | – | – | 7.09 | 6.51 | 6.03 | – | – | – | – | – | – | – |
| CC(C)N.CC(C)N.C[O][Pt]([OH])([O]C(C)=O)[O]C(C)=O [Example 7, c,t,c-[Pt(OH)(OMe)(OAc)2 (i--C3 H7 NH2)2]] | 4.90 | 5.21 | 5.51 | 5.60 | 6.59 | – | – | – | – | – | – | – | – | – | – | – | – | – |
